Measurements as given in patent publication US20080031818A1, “Use of Modulators of a Novel Form of Muscle Selective Calcineurin Interacting Protein (Mcip-1-38) as a Treatment for Cardiovascular Diseases” (GILEAD COLORADO, INC., priority 2004, published 2008).

Legend:
beta myosin heavy chain = assay: Beta myosin heavy chain protein by cytoblot; format: cell-based, rat; conditions: NRVM, 48 hours exposure to PE, FIG. 10A
Procedure: NRVM culture. For preparations of neonatal rat ventricular myocytes (NRVMs), hearts were removed from 10-20 newborn (1-2 days old) Sprague-Dawley rats. Isolated ventricles were pooled, minced and dispersed by three 20-minute incubations at 37° C. in Ads buffer (116 mM NaCl, 20 mM HEPES, 10 mM NaH2PO4, 5.5 mM glucose, 5 mM KCl, […], pH 7.4) containing collagenase Type II (65 units/ml, Worthington) and pancreatin (0.6 mg/ml, GibcoBRL). Dispersed cells were applied to a discontinuous gradient of 40.5% and 58.5% (v/v) Percoll (Amersham Biosciences), centrifuged, and myocytes collected from the interface layer. Myocyte preparations were pre-plated in Dulbecco's modified Eagle's medium (DMEM, Cellgro), supplemented with 10% (v/v) fetal bovine serum (FBS, HyClone), 4 mM L-glutamine and 1% penicillin/streptomycin for 1 hour at 37° C. to reduce fibroblast contamination, then plated at a density of 2.5′10^5 cells per well on 6-well tissue culture plates (or 10,000 cells/well on 96-well tissue culture plates) coated with a 0.2% (w/v) gelatin solution. After 24 hours in culture, myocyte preparations were transferred to serum-free maintenance medium (DMEM supplemented with 0.1% (v/v) Nutridoma (Roche), L-glutamine and penicillin/streptomycin). […]
Myosin heavy chain protein quantitation by cytoblot. […] Plates were read in a 96-well luminometer (Packard Fusion).

[1] = test system: neonatal rat ventricular myocytes (NRVM); assay: Cardiomyocyte cell volume (Coulter counter); format: cell-based; conditions: 48 hours exposure to PE, versus untreated controls, FIG. 9
Procedure: NRVM culture. For preparations of neonatal rat ventricular myocytes (NRVMs), hearts were removed from 10-20 newborn (1-2 days old) Sprague-Dawley rats. Isolated ventricles were pooled, minced and dispersed by three 20-minute incubations at 37° C. in Ads buffer (116 mM NaCl, 20 mM HEPES, 10 mM NaH2PO4, 5.5 mM glucose, 5 mM KCl, […], pH 7.4) containing collagenase Type II (65 units/ml, Worthington) and pancreatin (0.6 mg/ml, GibcoBRL). Dispersed cells were applied to a discontinuous gradient of 40.5% and 58.5% (v/v) Percoll (Amersham Biosciences), centrifuged, and myocytes collected from the interface layer. […]
Hypertrophy and toxicity assays. Primary hypertrophy endpoints for NRVM included quantitation of ANF secretion, total cellular protein and cell volume. ANF in media supernatants was quantitated by competitive ELISA using a monoclonal anti-ANF antibody (Biodesign) and a biotinylated ANF peptide (Phoenix Peptide). Total cellular protein was quantitated by standard Coomassie dye-binding assay; cells were lysed in protein assay reagent (BioRad) and absorbance at A595 was measured after 1 hour. […] After recovery by centrifugation, cell pellets were washed in PBS, resuspended in 10 ml IsoFlow electrolyte solution (Beckman-Coulter) and analyzed with a Z2 Coulter Particle Counter and Size Analyzer (Beckman-Coulter). […]

CNC[C@H](O)c1cccc(O)c1 [phenylephrine]
beta myosin protein expression (beta myosin heavy chain): increased beta myosin protein expression by several fold | increase in cell volume [1]: approximately 50%
